Like-named read-outs stand apart in the source and are kept apart here.
Columns and labels:
[1] = tested on: P. falciparum chloroquine-resistant Dd2 strain; test: Antiplasmodial activity, SYBR Green I fluorescence-based assay; type: cell-based; settings: for Selectivity: cytotoxicity IC50 (NIH 3T3) over Dd2 IC50
Method: Fractions were derived from 20 different marine species. […] All fractions were then analyzed by LC-MS to identify active extracts with the greatest potential for novelty.
(§1) Antiplasmodial activity was tested in P falciparum chloroquine resistant Dd2, and the cytotoxicity was assessed in NIH 3T3 fibroblasts cells.
(§2) Asynchronous cultures were exposed to different concentrations of inhibitor for 72 hrs. […] The cytotoxicity against NIH 3T3 fibroblasts was evaluated using an MTS assay [(3-(4,5-dimethylthiazol-2-yl)-5-(3-carboxymethoxyphenyl)-2-(4-sulfophenyl)-2H-tetrazolium), CellTiter 96® Aqueous non-radioactive cell proliferation assay, Promega

[2] = tested on: NIH 3T3 fibroblasts; test: Cytotoxicity against NIH 3T3 fibroblasts (MTS assay); type: cell-based; settings: Table 2, MTS assay
Method: as §1, §2

[3] = reported in the past, Gutierrez et. al. Pharmaceutical Biol. 2005, 43, 762-765; cited from earlier work
[4] = Cytotoxicity against NIH 3T3 fibroblasts (MTS assay); type: cell-based; settings: mouse, Table 1, NIH 3T3 fibroblasts cells
Method: as §1, §2

[5] = has been shown, no source given; cited from earlier work
[6] = Plasmodium falciparum, Table 2, chloroquine-resistant Dd2 strain, asynchronous cultures, 72 hrs, read-out: P. falciparum IC50
[7] = Plasmodium falciparum, Table 1, P falciparum chloroquine resistant Dd2, read-out: Dd2 IC50
[8] = Table 2, chloroquine-resistant Dd2 strain, asynchronous cultures, 72 hrs, read-out: P. falciparum IC50

With `NCC(c1c[nH]c2ccccc12)c1c[nH]c2ccccc12` [2,2 bisindol-3-ylethyl amine 9, 2,2 bisindol-3-ylethyl amine] the IC50 [1, 6] was 6.5 µM and the IC50 ([2]; Mus musculus, NIH3T3) was 11.5 µM.

In the case of `COC1=C(Br)[C@H](O)[C@](O)(CC#N)C=C1Br` [Aeroplysin-1, aeroplysinin-1], the anti-malarial activity [3] is given as “anti-malarial activity”.

`C/C1=C/C(=O)C/C(C)=C/CC(C)(C)/C=C/C(=O)[C@@H](C)CCC1` [Compound 2] gave an IC50 [1, 7] of 1.56 µM, a Selectivity ([1]; Table 1) of 13.94 and an IC50 ([4]; NIH 3T3 fibroblast cells) of 21.8 µM.

For `C/C1=C\CC(C)(C)/C=C/C(=O)[C@@H](C)CCC[C@H](C)CC(=O)C1` [Compound 3], the IC50 ([1]; Plasmodium falciparum, Dd2 strain printed for compound 3 only, strain not printed for 4 and HB39.A10, read-out: IC50) was 2.5 µM, the IC50 [1, 7] was 1.77 µM and the Selectivity ([1]; Table 1) was 11.34. For the same molecule, the IC50 ([4]; NIH 3T3 fibroblast cells) was 20 µM.

For `COc1ccc(/C=C/CCCCC(C)[C@H](O)[C@@H](O)C2NC(=O)C[C@@H](O)CNC(=O)CNC(=O)[C@@H](Cc3c(C(=O)O)[nH]c4ccccc34)NC(=O)CN(C)C(=O)C[C@@]3(O)NC(=O)[C@H](O)C3NC(=O)[C@H]2O)cc1` (stereo partly shown) [Compound 4, microsclerodermin A], the IC50 ([1]; Plasmodium falciparum, DD2) was 0.73 µM, the IC50 ([1]; Plasmodium falciparum, DD2, read-out: Dd2 IC50) was 0.075 µM and the Selectivity ([1]; Table 1) was 47.07. For the same molecule, the IC50 [4] was 3.53 µM.

In the case of `CCC(=O)NCCc1c2c3c(ccnc3c3ncsc13)-c1ccccc1N2` [Compound 5, dercitamide], the cytotoxicity [5] is listed as “very moderate cytotoxicity”, the IC50 ([1]; Dd2 strain printed for compound 3 only, strain not printed for 4 and HB39.A10, read-out: IC50) is listed as 2.3 µM and the IC50 [1, 7] is listed as 1.05 µM. The Selectivity ([1]; Table 1) was 14.13 and the IC50 ([4]; NIH 3T3 fibroblast cells) was 14.8 µM.

With `CN1CC(c2c[nH]c3c(Br)c(Br)cc(O)c23)NCC1c1c[nH]c2cc(Br)ccc12` (stereo not shown) [Dragmacidin 6, Dragmacidin] the IC50 [1, 8] was 6.4 µM and the IC50 [2] was 7.8 µM.

`NC(N)=NCCSc1nc(-c2c[nH]c3cc(Br)ccc23)cnc1-c1c[nH]c2cc(Br)ccc12` [Dragmacidin G 12, Dragmacidin G] showed an IC50 [1, 8] of 6.4 µM and an IC50 [2] of 7.8 µM.

`O=C1N[C@@H](c2c[nH]c3cc(Br)ccc23)CN=C1c1c[nH]c2cc(Br)ccc12` [Hamacanthin A 7, Hamacanthin A] gave an IC50 [1, 8] of 3.2 µM and an IC50 [2] of 30.4 µM.

Work on `O=C1NC[C@H](c2c[nH]c3cc(Br)ccc23)N=C1c1c[nH]c2cc(Br)ccc12` [Hamacanthin B 8, Hamacanthin B] yielded an IC50 [1, 8] greater than 20.6 µM and an IC50 [2] of 38.6 µM.

For `Brc1ccc2c(-c3cnc(-c4c[nH]c5cc(Br)ccc45)[nH]3)c[nH]c2c1` [Nortopsentin A, reference compound], the IC50 [1, 6] was 0.6 µM and the IC50 ([2]; Mus musculus, NIH3T3) was 6 µM.

With Dragmacidin D [Dragmacidin D 11] the IC50 [1, 8] was 5.2 µM and the IC50 [2] was 27.7 µM.

From patent US9181251B2, “Anti-malarial compounds from marine natural products” (University of Central Florida Research Foundation, Inc., priority 2012, dated 2015)
